# In patent US9833497B2, “Human originated EGF domain proteins and use of the same” (CHENGDU SOURCEBIO LIMITED-LIABILITY COMPANY, priority 2013, dated 2017):
# Legend:
# Assay type in all cases: cell-based
# E. coli DH5α = assay: Antibacterial activity: MIC and growth curve against E. coli DH5α in 96-well plate; settings: minimal inhibitory concentration against E. coli DH5α; 96-well plate, 5×10^5 CFU/mL, 37° C., judged after 8 h
# Outline: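 Log-phase bacteria (OD600 ~0.5) resuspended in LB at 5×10^5 CFU/mL, exposed to recombinant protein at 50, 25, 12.5 μg/mL final in triplicate, 37 °C shaking at 175 rpm. OD600 read every 30 min; MIC is lowest concentration showing no growth.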
# E. coli BL21 = assay: MIC against Gram-negative bacteria: E. coli BL21; settings: E. coli BL21; 10 h cultivation at 37° C.
# Outline: (§1)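 First, colonies from LB agar were grown in LB at 37° C, 185 rpm, to McFarland turbidity 0.5, then centrifuged and resuspended in fresh LB. Next, wells received 5×10^5 CFU/mL bacteria plus two-fold serially diluted EGF domain protein (triplicate). Finally, plates were shaken at 37° C and the no-growth concentration taken as MIC.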
# Pseudomonas aeruginosa = assay: MIC against Gram-negative bacteria: Pseudomonas aeruginosa; settings: P. aeruginosa; 10 h cultivation at 37° C.
# Outline: as §1
# Klebsiella pneumonia = assay: MIC against Gram-negative bacteria: Klebsiella pneumonia; settings: K. pneumonia; 10 h cultivation at 37° C.
# Outline: as §1
# Enterobacter cloacae = assay: MIC against Gram-negative bacteria: Enterobacter cloacae; settings: E. cloacae; 10 h cultivation at 37° C.
# Outline: as §1
# Aeromonas hydrophila = assay: MIC against Gram-negative bacteria: Aeromonas hydrophila; settings: A. hydrophila; 10 h cultivation at 37° C.
# Outline: as §1
# Citrobacter diversus = assay: MIC against Gram-negative bacteria: Citrobacter diversus; settings: C. diversus; 10 h cultivation at 37° C.
# Outline: as §1
# Moraxella catarrhalis = assay: MIC against Gram-negative bacteria: Moraxella catarrhalis; settings: M. catarrhalis; 10 h cultivation at 37° C.
# Outline: as §1
# Proteus mirabilis = assay: MIC against Gram-negative bacteria: Proteus mirabilis; settings: P. mirabilis; 10 h cultivation at 37° C.
# Outline: as §1
# Proteus vulgaris = assay: MIC against Gram-negative bacteria: Proteus vulgaris; settings: P. vulgaris; 10 h cultivation at 37° C.
# Outline: as §1
# Serratia marcescens = assay: MIC against Gram-negative bacteria: Serratia marcescens; settings: S. marcescens; 10 h cultivation at 37° C.
# Outline: as §1
Substance,MIC (E. coli DH5α),MIC (E. coli BL21),MIC (Pseudomonas aeruginosa),MIC (Klebsiella pneumonia),MIC (Enterobacter cloacae),MIC (Aeromonas hydrophila),MIC (Citrobacter diversus),MIC (Moraxella catarrhalis),MIC (Proteus mirabilis),MIC (Proteus vulgaris),MIC (Serratia marcescens)
PRT977 (EVDPCLAQPCQHGGTCRGYMGGYMCECLPGYNGDNCE; listed as Homo sapiens),12.5 µg/mL,50 µg/mL,12.5 µg/mL,50 µg/mL,12.5 µg/mL,25 µg/mL,50 µg/mL,25 µg/mL,12.5 µg/mL,50 µg/mL,25 µg/mL
PRT978 (DVDECASQPCQHGGSCIDLVARYLCSCPPGTLGVLCE; listed as Homo sapiens),12.5 µg/mL,50 µg/mL,12.5 µg/mL,50 µg/mL,12.5 µg/mL,25 µg/mL,50 µg/mL,12.5 µg/mL,25 µg/mL,50 µg/mL,12.5 µg/mL
PRT979 (LPDPCLSSPCAHGARCSVGPDGRFLCSCPPGYQGRSCR; listed as Homo sapiens),50 µg/mL,12.5 µg/mL,50 µg/mL,12.5 µg/mL,50 µg/mL,12.5 µg/mL,100 µg/mL,25 µg/mL,12.5 µg/mL,25 µg/mL,12.5 µg/mL
PRT981 (DINECRSGACHAAHTRDCLQDPGGGFRCLCHAGFSGPRCQ; listed as Homo sapiens),25 µg/mL,12.5 µg/mL,50 µg/mL,12.5 µg/mL,50 µg/mL,12.5 µg/mL,25 µg/mL,25 µg/mL,12.5 µg/mL,50 µg/mL,12.5 µg/mL
PRT982 (VLSPCESQPCQHGGQCRPSPGPGGGLTFTCHCAQPFWGPRCE; listed as Homo sapiens),50 µg/mL,25 µg/mL,12.5 µg/mL,50 µg/mL,12.5 µg/mL,25 µg/mL,50 µg/mL,12.5 µg/mL,50 µg/mL,12.5 µg/mL,50 µg/mL
PRT983 (VARSCRELQCPVGVPCQQTPRGPRCACPPGLSGPSCR; listed as Homo sapiens),25 µg/mL,12.5 µg/mL,25 µg/mL,50 µg/mL,12.5 µg/mL,25 µg/mL,50 µg/mL,12.5 µg/mL,50 µg/mL,12.5 µg/mL,25 µg/mL
PRT984 (SNASCAAAPCLHGGSCRPAPLAPFFRCACAQGWTGPRCE; listed as Homo sapiens),50 µg/mL,12.5 µg/mL,25 µg/mL,50 µg/mL,25 µg/mL,12.5 µg/mL,12.5 µg/mL,12.5 µg/mL,50 µg/mL,25 µg/mL,12.5 µg/mL
PRT987 (NVDDCPGHRCLNGGTCVDGVNTYNCQCPPEWTGQFCT; listed as Homo sapiens),25 µg/mL,12.5 µg/mL,25 µg/mL,50 µg/mL,25 µg/mL,12.5 µg/mL,50 µg/mL,12.5 µg/mL,50 µg/mL,12.5 µg/mL,50 µg/mL
PRT988 (DVDECQLQPNACHNGGTCFNTLGGHSCVCVNGWTGESCS; listed as Homo sapiens),12.5 µg/mL,50 µg/mL,12.5 µg/mL,50 µg/mL,12.5 µg/mL,50 µg/mL,12.5 µg/mL,50 µg/mL,12.5 µg/mL,50 µg/mL,12.5 µg/mL
PRT989 (NIDDCATAVCFHGATCHDRVASFYCACPMGKTGLLCH; listed as Homo sapiens),50 µg/mL,12.5 µg/mL,50 µg/mL,12.5 µg/mL,12.5 µg/mL,12.5 µg/mL,100 µg/mL,100 µg/mL,12.5 µg/mL,12.5 µg/mL,25 µg/mL
PRT990 (LDDACVSNPCHEDAICDTNPVNGRAICTCPPGFTGGACD; listed as Homo sapiens),12.5 µg/mL,25 µg/mL,12.5 µg/mL,12.5 µg/mL,50 µg/mL,12.5 µg/mL,25 µg/mL,50 µg/mL,25 µg/mL,12.5 µg/mL,25 µg/mL
PRT991 (RGLLCGSFPEPCANGGTCLSLSLGQGTCQCAPGFLGETCQ; listed as Homo sapiens),50 µg/mL,25 µg/mL,12.5 µg/mL,25 µg/mL,50 µg/mL,12.5 µg/mL,50 µg/mL,12.5 µg/mL,25 µg/mL,12.5 µg/mL,25 µg/mL
PRT992 (LEDMCLSQPCHGDAQCSTNPLTGSTLCLCQPGYSGPTCH; listed as Homo sapiens),12.5 µg/mL,12.5 µg/mL,12.5 µg/mL,12.5 µg/mL,25 µg/mL,25 µg/mL,25 µg/mL,25 µg/mL,25 µg/mL,12.5 µg/mL,25 µg/mL
PRT994 (DHNECLSQPCHPGSTCLDLLATFHCLCPPGLEGQLCE; listed as Homo sapiens),50 µg/mL,12.5 µg/mL,25 µg/mL,50 µg/mL,25 µg/mL,12.5 µg/mL,50 µg/mL,12.5 µg/mL,25 µg/mL,50 µg/mL,25 µg/mL
PRT995 (ETNECASAPCLNHADCHDLLNGFQCICLPGFSGTRCE; listed as Homo sapiens),12.5 µg/mL,50 µg/mL,12.5 µg/mL,50 µg/mL,12.5 µg/mL,50 µg/mL,25 µg/mL,12.5 µg/mL,25 µg/mL,50 µg/mL,12.5 µg/mL
PRT996 (DIDECRSSPCANGGQCQDQPGAFHCKCLPGFEGPRCQ; listed as Homo sapiens),25 µg/mL,12.5 µg/mL,25 µg/mL,12.5 µg/mL,12.5 µg/mL,100 µg/mL,12.5 µg/mL,25 µg/mL,12.5 µg/mL,25 µg/mL,12.5 µg/mL
PRT997 (EVDECLSDPCPVGASCLDLPGAFFCLCPSGFTGQLCE; listed as Homo sapiens),12.5 µg/mL,12.5 µg/mL,12.5 µg/mL,12.5 µg/mL,50 µg/mL,12.5 µg/mL,50 µg/mL,12.5 µg/mL,25 µg/mL,50 µg/mL,25 µg/mL
PRT998 (VPLCAPNLCQPKQICKDQKDKANCLCPDGSPGCA; listed as Homo sapiens),12.5 µg/mL,50 µg/mL,12.5 µg/mL,50 µg/mL,12.5 µg/mL,50 µg/mL,25 µg/mL,12.5 µg/mL,25 µg/mL,50 µg/mL,25 µg/mL
PRT999 (PEDNCTCHHGHCQRSSCVCDVGWTGPECE; listed as Homo sapiens),12.5 µg/mL,50 µg/mL,25 µg/mL,12.5 µg/mL,25 µg/mL,50 µg/mL,12.5 µg/mL,25 µg/mL,50 µg/mL,25 µg/mL,12.5 µg/mL
